The values below come from patent publication US9605029B2, “Antibody-binding peptide” (NATIONAL INSTITUTE OF ADVANCED INDUSTRIAL SCIENCE AND …, priority 2013, dated 2017).

This assay has as its system Fc region (Jackson ImmunoResearch Laboratories, Inc.) labeled with horseradish peroxidase (HRP). In words: ELISA of recombinant phages displaying polypeptides (Example 2, 6). It is filed as binding, human. Particulars: recombinant T7 phage displaying the polypeptide, absorbance at 415 nm. How it is done: 6) In this section, it will be stated as an example that the binding activity of recombinant phages transformed by nucleic acids encoding amino acid sequences represented by SEQ ID NOs: 26, 27, 30 to 55, 57, 63 to 72 and 79 to 81 was measured by Enzyme Linked Immuno-Sorbent Assay (ELISA).
DNA molecules encoding amino acid sequences of SEQ ID NOs: 26, 27, 30 to 55, 57, 63 to 72 and 79 to 81 were amplified by a polymerase chain reaction (PCR) using KOD DNA polymerase (TOYOBO) under the reaction conditions according to the accompanying manual. Each of the amplified DNA was digested with restriction enzymes EcoRI and HindIII, and ligated to the 3′ terminal of g10 gene on T7 phage genomic DNA. Ligation to T7 phage genomic DNA was performed by use of a sample attached to T7Select10-3 Cloning Kit (Novagen) under the reaction conditions and in accordance with the procedure described in T7Select (registered trade mark) System Manual. Using T7 phage genomic DNA ligated, T7 phage was packaged in a test tube by T7Select Packaging Kit (Novagen) under the reaction conditions in accordance with T7Select (registered trade mark) System Manual (Novagen). Subsequently, phage plaque was formed in accordance with T7Select (registered trade mark) System Manual (Novagen). From each of the plaques, a recombinant phage displaying the polypeptide was isolated. To MICROTEST (registered trade mark) 96 (BECTON, DICKINSON AND COMPANY), a culture solution (0.2 mL) of Escherichia coli BL5403 strain cultured in LB medium until O.D.600 reached 1.0 was poured to infect with the Escherichia coli cells each of the recombinant phages isolated from plaques and allowed to stand still 37° C. for 12 hours to proliferate phages. The culture solution (10 μL) containing these phages was diluted in 90 μL of TBS buffer (50 mM Tris-HCl, 150 mM NaCl, pH 7.4) to prepare measurement samples.
The measurement samples were poured to MEDISORP 96 well microplate (Nunc) and allowed to stand still for one hour to allow the phage to physically adsorb to the plate. The supernatant was removed and SuperBlock (registered trade mark) T20 (TBS) Blocking Buffer (Thermo […]) (150 μL) was poured to the plate and allowed to stand still for one hour to block the surface of the plate. The plate was washed three times with TBS-T buffer (50 mM Tris-HCl, 150 mM NaCl, 0.1% Tween 20 (registered trade mark), pH 7.4). To the plate, TBS-T buffer (100 μL) containing an Fc region (Jackson ImmunoResearch Laboratories, Inc.) (0.2 μg/mL) labeled with horseradish peroxidase (HRP) was added and allowed to stand still for one hour. After the plate was washed three times with TBS-T buffer, ABTS One Component HRP Microwell Substrate (BioFX) (100 μL) was poured to the plate. The binding activity was detected through a […]. The absorbance at 415 nm (O.D.415) was measured by a microplate absorbance reader Sunrise R (TECAN GROUP LTD.). TBS-T buffer containing no phages was used as a negative control in a control experiment.
ELISA results of the recombinant phages displaying polypeptides containing amino acid sequences represented by SEQ ID NOs: 26, 27 and 30 to 55 and the recombinant phages displaying polypeptides containing amino acid sequences represented by SEQ ID NOs: 57, 63 to 72 and 79 to 81 are shown in Table 5A and Table 5B, respectively.

For “30 (DAAWHLGELVWATYYDPETGTWEPDWKLMQRP; IgG binding peptide, pep7) [compound 30]”, the “O.D. 415” value (control 0.11) came to 0.287.

With “66 (WPLNAPSSAFYDPETGTWYDAAWHLGELVWATYYDPETGTWEPDWQRMLGQ; IgG binding peptide, p13) [compound 66]”, the “O.D. 415” value (control 0.098) was 0.182.

Consider “69 (VVRVDHSSAVYDPETGTWYDAAWHLGELVWATYYDPETGTWEPDWQRMLGQ; IgG binding peptide, p20) [compound 69]”, for which, where the note is “control 0.098”, the “O.D. 415” value was found to be 0.201.

For “42 (DAAWHLGELVWATYYDPETGTWAPDWNRMRDFNRSFREV; IgG binding peptide, pep29) [compound 42]”, under “control 0.11”, the “O.D. 415” value was 0.273.

For “27 (DAAWHLGELVWATYYDPETGTWEPDWQRMLGQ; IgG binding peptide, pep24) [compound 27]”, the “O.D. 415” value (control 0.11) was 0.289.

As to “46 (DAAWHLGELVWATYYDPETGTWLPDWSQMRPQ; IgG binding peptide, pep18) [compound 46]”, the “O.D. 415” value (control 0.11) amounted to 0.243.

Take “39 (DAAWHLGELVWATYYDPETGTWTPDWNAMSQR; IgG binding peptide, pep6) [compound 39]”: the “O.D. 415” value (control 0.11) amounted to 0.273.

Consider “34 (DAAWHLGELVWATYYDPETGTWEPDWSKMRPQ; IgG binding peptide, pep1) [compound 34]”, for which the “O.D. 415” value (control 0.11) is on record as 0.281.

For “79 (GSCKFSSSCHYDPETGTWYDAAWHLGELVWATYYDPETGTWEPDWQRMLGQ; IgG binding peptide, p24_2) [compound 79]”, under “control 0.098”, the “O.D. 415” value is listed as 0.329.

Consider “26 (DAAWHLGELVWATYYDPETGTWLPDWQTMAQK; IgG binding peptide, pep21) [compound 26]”, for which the “O.D. 415” value (control 0.11) is reported as 0.43.

Take “31 (DAAWHLGELVWATYYDPETGTWQPDWDIMAGH; IgG binding peptide, pep25) [compound 31]”: the “O.D. 415” value (control 0.11) is given as 0.295.

Consider “52 (DAAWHLGELVWATYYDPETGTWRPDWARMEPM; IgG binding peptide, pep28) [compound 52]”, for which the “O.D. 415” value (control 0.11) was found to be 0.25.

As to “55 (EAWHLGELVWATYYDPETGTWRPDWSRMSGR; IgG binding peptide, pep11_2) [compound 55]”, the “O.D. 415” value (control 0.11) is listed as 0.252.

As to “71 (DGVGPGSRGVYDPETGTWYDAAWHLGELVWATYYDPETGTWEPDWQRMLGQ; IgG binding peptide, p27) [compound 71]”, the “O.D. 415” value (control 0.098) was 0.219.

In the case of “64 (IPYGFPGRGEYDPETGTWYDAAWHLGELVWATYYDPETGTWEPDWQRMLGQ; IgG binding peptide, p4) [compound 64]”, the “O.D. 415” value (control 0.098) came out at 0.213.

In the case of “57 (GPGISAFSPGRGVYDPETGTWYDAAWHLGELVWATYYDPETGTWEPDWQRMLGQ; IgG binding peptide, p17) [compound 57]”, the “O.D. 415” value (control 0.098) is listed as 0.229.

“54 (DAAWHLGELVWATYYDPETGTWQPDWEIMRPF; IgG binding peptide, pep30) [compound 54]”: the “O.D. 415” value (control 0.11) stood at 0.258.

Consider “43 (DAAWHLGELVWATYYDPETGTWVPDWDAMSSR; IgG binding peptide, pep15) [compound 43]”, for which the “O.D. 415” value (control 0.11) is given as 0.813.

With “40 (DAAWHLGELVWATYYDPETGTWQPDWKRMTSR; IgG binding peptide, pep10) [compound 40]”, the “O.D. 415” value (control 0.11) is given as 0.251.

Regarding “41 (DAAWHLGELVWATYYDPETGTWQPDWGRMNSK; IgG binding peptide, pep12) [compound 41]”, the “O.D. 415” value (control 0.11) is 0.274.

In the case of “80 (LIPPGGISPWYDPETGTWYDAAWHLGELVWATYYDPETGTWEPDWQRMLGQ; IgG binding peptide, p25_2) [compound 80]”, the “O.D. 415” value (control 0.098) was found to be 0.215.

“49 (DAAWHLGELVWATYYDPETGTWVPDWDTMHAAINRSFREV; Artificial Sequence, pep22; IgG binding peptide) [compound 49]”: for the setting “control 0.11”, the “O.D. 415” value turned out to be 0.346.

Take “37 (DAAWHLGELVWATYYDPETGTWLPDWDYMSSK; IgG binding peptide, pep4) [compound 37]”: the “O.D. 415” value (control 0.11) is recorded as 0.235.

As for “70 (WMEFYPGRGVYDPETGTWYDAAWHLGELVWATYYDPETGTWEPDWQRMLGQ; IgG binding peptide, p26) [compound 70]”, the “O.D. 415” value (control 0.098) is reported as 0.189.

“35 (DAAWHLGELVWATYYDPETGTWRPDWAVMATP; IgG binding peptide, pep2) [compound 35]”: the “O.D. 415” value (control 0.11) is on record as 0.32.

As to “50 (DAAWHLGELVWATYYDPETGTWIPDWRAMSQF; IgG binding peptide, pep23) [compound 50]”, under “control 0.11”, the “O.D. 415” value is listed as 0.244.

For “51 (DAAWHLGELVWATYYDPETGTWLPDWNLMGQH; IgG binding peptide, pep26) [compound 51]”, under “control 0.11”, the “O.D. 415” value is 0.265.

“33 (DAAWHLGELVWATYYDPETGTWVPDWERMKQH; IgG binding peptide, pep31) [compound 33]”: the “O.D. 415” value (control 0.11) is 0.305.

Take “81 (LNDFLTPTAWYDPETGTWYDAAWHLGELVWATYYDPETGTWLPDWQTMAQK; IgG binding peptide, p31) [compound 81]”: the “O.D. 415” value (control 0.098) amounted to 0.235.

With “44 (DAAWHLGELVWATYYDPETGTWIPDWTRMQTW; IgG binding peptide, pep16) [compound 44]”, the “O.D. 415” value (control 0.11) is 0.243.

As for “67 (VPPRFSSSAQYDPETGTWYDAAWHLGELVWATYYDPETGTWEPDWQRMLGQ; IgG binding peptide, p14) [compound 67]”, the “O.D. 415” value (control 0.098) was found to be 0.25.

As for “36 (DAAWHLGELVWATYYDPETGTWKPDWRMMGVP; IgG binding peptide, pep3) [compound 36]”, the “O.D. 415” value (control 0.11) is 0.287.

On to “72 (FVSSLPNSAMYDPETGTWYDAAWHLGELVWATYYDPETGTWEPDWQRMLGQ; IgG binding peptide, p28) [compound 72]”, for which the “O.D. 415” value (control 0.098) is 0.229.

With “32 (DAAWHLGELVWATYYDPETGTWLPDWDVMVRQ; IgG binding peptide, pep27) [compound 32]”, under “control 0.11”, the “O.D. 415” value was determined as 0.352.

Take “68 (FLVGLHAGAVYDPETGTWYDAAWHLGELVWATYYDPETGTWEPDWQRMLGQ; IgG binding peptide, p15_2) [compound 68]”: the “O.D. 415” value (control 0.098) is recorded as 0.186.

As to “63 (SNFVRSPSAWYDPETGTWYDAAWHLGELVWATYYDPETGTWEPDWQRMLGQ; IgG binding peptide, p2_2) [compound 63]”, the “O.D. 415” value (control 0.098) is recorded as 0.272.

For “47 (DAAWHLGELVWATYYDPETGTWLPDWDTMTPR; IgG binding peptide, pep19) [compound 47]”, for the setting “control 0.11”, the “O.D. 415” value is reported as 0.255.

“53 (DAAWHLGELVWATYYDPETGTWKPDWQVMSPVSNRSFREV; IgG binding peptide, pep29) [compound 53]”: for the setting “control 0.11”, the “O.D. 415” value stood at 0.279.

Consider “45 (DAAWHLGELVWATYYDPETGTWKPDWQRMKLH; IgG binding peptide, pep17) [compound 45]”, for which the “O.D. 415” value (control 0.11) worked out at 0.249.

In the case of “48 (DAAWHLGELVWATYYDPETGTWQPDWSVMKSL; IgG binding peptide, pep20) [compound 48]”, the “O.D. 415” value (control 0.11) turned out to be 0.373.

Take “38 (DAAWHLGELVWATYYDPETGTWMPDWDRMLRR; IgG binding peptide, pep5) [compound 38]”: under “control 0.11”, the “O.D. 415” value is recorded as 0.29.

Turning to “65 (GPYNIPDSAVYDPETGTWYDAAWHLGELVWATYYDPETGTWEPDWQRMLGQ; IgG binding peptide, p5) [compound 65]”, where the note is “control 0.098”, the “O.D. 415” value was 0.291.
